Experimental data: a melting point compilation (Tetko et al.; mined from patent text by program, amines drawn as free bases though some values may be those of a salt)

melting point	SMILES
181 to 185 °C	O=C(O)C(O)C(O)C(=O)NCc1ccc2c(c1)-c1n[nH]c(=O)c3cccc(c13)O2 (centres undefined)
115 °C	Cc1cc(C(=O)c2cccs2)cc(C)c1OCC(=O)O
> 300 °C	O=c1c(O)c(-c2nnc(Cc3ccc(F)cc3)o2)[nH]c2ccccc12
92 to 93 °C	CCOC(=O)CCc1ccc(OCCCc2cn(-c3ccc(C(F)(F)F)cn3)nc2OCC)c(O)c1
129 to 130 °C	C(=C\c1nc(COc2ccc(CCCn3ccnc3)cc2)cs1)/c1ccccc1
198 to 201 °C	Nc1ccc(N2C(=O)c3ccc(Cl)cc3C2=O)c(Cl)c1
107 to 110 °C	COC(=O)C1=C(C)Nc2ccccc2SC1c1ccc(OC)cc1 (centres undefined)
213 to 217 °C	CN(C)CCOc1ccc2c(c1)[nH]c(=O)c1c3ccccc3oc21
92 to 93 °C	C#CCOc1cc(Cl)nc(Nc2ccccc2)n1
190 to 193 °C	CCOCc1nc2c(N)nc3ccccc3c2n1CC(C)(C)O
170 to 173 °C	CN(C)C1=Nc2ccccc2C(O)(c2ccccc2)C1(C)C (centres undefined)
60 to 62 °C	COc1nn(-c2ccc(C)c3c2OC(C)(C)C3)c(=O)o1
203 to 204 °C	CC(C)n1nc(-c2c(-c3ccccc3)nn3ccc(N4CCNCC4)cc23)ccc1=O
94 to 97 °C	COc1c(Cl)ccc(C#N)c1F
> 300 °C	CC1(C)C(=O)Nc2cc3[nH]c(NC(=O)c4ccncc4)nc3cc21
130 to 132 °C	COC(CCc1ccc(Cl)cc1Cl)(Cn1cncn1)C(C)(C)C1OCCCO1 (centres undefined)
214 to 217 °C	Cc1cc2c(-c3ccccc3F)c(C(=O)O)oc(=O)c2cc1C
98 to 99 °C	CCOC(=O)C(C)(NC(=O)CNC=O)C(=O)OCC
219 to 221 °C	COc1ccc(-c2cc3c(n2-c2ccc(O)c(C(=O)O)c2)CCCC3)cc1
171 to 172 °C	O=C(O)c1cc(C(F)(F)F)ccc1I
109 to 111 °C	CC(=O)c1ccc2c(c1)c1ccccc1n2CCCCl
165 to 167 °C	O=Nc1c(-c2ccccc2)nc2ccccn12
183 to 185 °C	CCCc1nc(C(C)(C)O)c(C(=O)O)n1Cc1ccc(-c2ccccc2C(=O)C(=O)O)cc1

melting point	SMILES
178 to 180 °C	CCOC(=O)c1cn(C2CC2)c2cc(-c3cc(C4OCC(C)(C)CO4)cc(OC)c3OC)c(F)cc2c1=O
119 to 120 °C	COC(=O)Cc1c(O)c(C)nn1C
186 °C	CCOc1ccc2c(c1)n(C1CCCCC1)c(=O)n2Cc1ccc(C(=O)NC(C)(C)C)cc1OC
138 to 140 °C	c1ccc(Cc2c[nH]c(-c3ncc[nH]3)n2)cc1
225 to 226 °C	N#Cc1ccc(OCc2ccncc2)cc1OC(C(=O)O)c1ccccc1Cl (racemic)
193 to 194 °C	O=C(Nc1ccc(N2CCN(C(=O)C(F)(F)F)CC2)cc1)C(F)(F)F
196 to 199 °C	Cn1cccc1C(=O)C(C#N)C(=O)Nc1c(Cl)cccc1Cl (centres undefined)
118 °C	COc1ccc(S(N)(=O)=O)cc1C1CO1 (centres undefined)
> 250 °C	Cn1cc(C(N)=O)c(Nc2ccc(Cl)c(Cl)c2)cc1=O
169 to 171 °C	COc1ccc(CNc2nc(N3CCC[C@H]3CO)cnc2C(=O)O)cc1Cl
> 250 °C	Nc1nc(S(N)(=O)=O)c2[nH]cnc2n1
108 °C	CCOc1ccc2[nH]c(=O)n(N3CCN(C)CC3)c2c1
258 °C	Cc1c(Cl)cc(C(C)(C)C)c(O)c1-c1nc2cc(C#N)ccc2[nH]1
90 °C	CN(C)C(=O)n1cc(C(=O)C2CSC(c3cccnc3)N2C=O)c2ccc(OCc3ccccc3)cc21 (centres undefined)
201 to 202 °C	CCOC(=O)c1nnc(NS(=O)(=O)c2ccc(NC(C)=O)cc2)s1
255 to 257 °C	O=c1[nH]c2ccc(Cl)cc2c(=O)n1CCCS
218 to 220 °C	CCOC(=O)c1cnc2c(c1O)CC(CC)CC2 (centres undefined)
192 to 194 °C	Fc1ccc(NC(=S)NN2CC=C(c3ccccc3)CC2)cc1
55 °C	CSc1cncc(Oc2ccc(Cl)c(Cl)c2)c1
133 to 134 °C	N#Cc1ccc(C(=O)Nc2cccc(-n3nc(C(F)(F)F)cc3C(F)(F)F)c2)cc1
201 to 203 °C	O=c1c(O)c(-c2ccc[nH]2)oc2ccccc12
220 °C	N#C/C(=C\c1cc(O)c(O)c(I)c1)C(=O)NCc1ccccc1
189 to 190 °C	c1ccc(C(N=C2NCCN2)c2ccccc2)cc1

melting point	SMILES
90 to 92 °C	COc1ccc(Cc2nc3cccc(NCc4cccnc4)c3o2)cc1OC1CCCC1
90 °C	COc1ccc(C(O)c2cccc3c2ccn3S(=O)(=O)c2ccc(C)cc2)cc1 (centres undefined)
> 250 °C	O=c1[nH]c2cscc2c(=O)n1CCN1CCN(c2ccc(Cl)cc2)CC1
> 300 °C	Cn1c(=O)c2c(-c3ccccc3)n(-c3ccccc3N)cc2n(C)c1=O
195 to 196 °C	CCOC(=O)CN(CCN(CCN1CC(=O)OC(=O)C1)CC(=O)O)CC(=O)O
158 °C	CCOc1ccc2c(c1)n(C(C)(C)CC(C)(C)C)c(=O)n2S(=O)(=O)c1ccc([N+](=O)[O-])cc1OC
112 to 114 °C	CN1CCCC1CCNc1nccc(Oc2ccc(NC(=O)c3cc(F)cc(N4CCCCC4)c3)c3ccccc23)n1 (centres undefined)
63 to 65 °C	Cc1ccc(SC2CC(=O)N2CC(=O)NCCCCCCc2ccc(Cl)cc2)cc1 (centres undefined)
236 to 237 °C	CN1C(=O)c2cncnc2Nc2ccccc21
80 to 82 °C	N=C(N)NC(=O)Cn1c(Cc2ccco2)ccc1-c1ccccc1
126 °C	CC(C)(C)c1ccc(Cn2[nH]c(N)cc2=O)cc1
350 to 355 °C	CCCCn1c(=O)c2nc(-c3ccc(/C=C/C(=O)O)cc3)[nH]c2n(CCCC)c1=O
112 to 114 °C	CCCCNC(C)=C1C(=O)OC(=O)C(C(C)=O)=C1O
228 to 233 °C	Cc1c(C)c(N2CCN(c3ccc(S(C)(=O)=O)cc3)CC2)c(C)c2c1OC(C)C2 (centres undefined)
225 °C	CN1CCC(C2(O)c3ccccc3CCn3cc(-c4ccccc4)nc32)CC1 (centres undefined)
91 to 91.5 °C	COc1ccccc1SCCC(=O)O
336 to 338 °C	CC1(C)C(=O)Nc2cc3oc(-c4ccncc4)nc3cc21
208 °C	N#CCCNC1(CC2CCCCC2)C(=O)Nc2ccc(Cl)cc21 (centres undefined)
180 °C	Cc1cc(SC2=C(O)CC(CCc3ccc(O)cc3)(C3CCCCC3)OC2=O)c(C(C)(C)C)cc1OS(=O)(=O)c1ccccc1 (centres undefined)
115 to 116 °C	COC(=O)c1c(-c2ccc(OC)cc2)ccc2ccccc12
33 to 33.5 °C	CNC(=O)COCC(=O)O
216 to 217 °C	CC1CC(=O)c2c(nc3c(c2N)c2ccccc2n3C)C1 (centres undefined)

SMILES	melting point
CN1CCC2(C)c3cc(O)cc([N+](=O)[O-])c3N(C)C12 (centres undefined)	170 to 171 °C
CC(C)(C)OC(=O)c1ncn2c1[C@@H]1CCN1C(=O)c1c(Br)cccc1-2	240 to 241 °C
COc1cccc(OC)c1C(=O)P(CC(C)C)C(=O)c1c(OC)cccc1OC	138 to 140 °C
CC12CCC3C4CCC(=O)C=C4CCC3C1CCC2=O (centres undefined)	163 to 169 °C
FCc1nnc2n1-c1ccc(Cl)cc1C(c1ccccc1)=NC2	153 to 154 °C
CCN(CC)C(=O)N(C1CCCCC1)C1CCN(C(=O)C(Cc2ccc(Cl)cc2)NC2CCNCC2)CC1 (centres undefined)	> 220 °C
